Assay [1] relates to S. aureus ΔClpP. The assay can be described thus: Minimal inhibitory concentration, microbroth dilution. The class given is cell-based, Staphylococcus aureus. The settings on record: MIC; ClpP inactivated. The procedure: (§1) Minimal inhibitory concentrations (“MICs”) were determined using the microbroth dilution method according to Clinical Laboratory Standards Institute (CLSI; National, C.F. C. L. S., Methods for Dilution Antimicrobial Susceptibility Tests for Bacteria Grow aerobically-Seventh Edition: Approved Standard M7-A7, CLSI, Wayne, Pa., USA, 2008) and were read by visual inspection. Two fold serial dilutions of test compound in 100 μL of the appropriate broth media were first prepared in 96-well round bottom microtiter plates (Nalgene Nunc International, Rochester, N.Y., USA). An equivalent volume (100 μL) of bacterial broth inocula containing approximately 10^5 bacterial cfu/mL was added to each well to give final concentrations of test compound starting at 200 μM. The plates were then incubated aerobically at 37° C. All strains were incubated overnight. After incubations, in all cases the MIC was recorded as the lowest concentration of drug that prevented bacterial growth. The bacterial strains for which MIC was determined as described in Table 4.

The test system of assay [2] is MRSA NRS70. Described as above. The assay is classed as cell-based. The conditions noted are these: Staphylococcus aureus. The procedure: as §1
In assay [3] the test system is E. faecails. Described as above. The class given is cell-based. The settings on record: Enterococcus faecalis. The method, then: as §1
Assay [4] has as its system S. aureus ATCC 29213. The assay is described as above. The class given is cell-based. The settings on record: Staphylococcus aureus. The procedure: as §1
The test system of assay [5] is S. aureus USA 300. The assay is described as above. The assay is classed as cell-based. The settings on record: Staphylococcus aureus. The method, then:
as §1

For assay [6], the target named is T1, S. aureus ClpP (Sa-ClpP) (Staphylococcus aureus, UniProt Q2G036).
T1 construct: made in house; host or cells: E. coli BL21 (DE3)
T1 sequence (Q2G036 whole entry): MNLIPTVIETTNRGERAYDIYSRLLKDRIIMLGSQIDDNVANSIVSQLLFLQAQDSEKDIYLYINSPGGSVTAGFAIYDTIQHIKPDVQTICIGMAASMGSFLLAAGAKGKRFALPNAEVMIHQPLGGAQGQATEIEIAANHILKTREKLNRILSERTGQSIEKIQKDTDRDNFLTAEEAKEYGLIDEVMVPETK
The assay can be described thus: Casein-BODIPY digestion assay (ClpP activation). The assay is classed as biochemical. The procedure:
The compounds were assayed in a casein digestion assay in order to determine their effect on ClpP activation. Briefly, the assay was carried out using S. aureus ClpP (“Sa-ClpP”) overexpressed in E. coli BL21 (DE3) and purified in a two-step process. Purity of the protein was assessed through SDS PAGE analysis. EC50 evaluations were conducted in triplicate in a 20 μl assay format using a method adapted from Maurizi et al. (Methods Enzymol. (1994) 244:314-331). Each well contained 10 μM saClpP, 25 μg/ml BODIPY FL casein (Invitrogen Corporation, San Diego, Calif.), and test compound in concentrations ranging between 0-1000 μM in assay buffer (50 mM Tris pH 8, 200 mM KCl, and 1 mM TCEP). The reaction took place at 37° C. Fluorescence (excitation 485 nm; emission 528 nm) was measured in five minute intervals over a 45 min period using a BioTek HT fluorescence microplate reader (BioTek Instruments, Inc., Winooski, Vt.). Velocity of each reaction was calculated and data was fit to a dose response curve using GraphPad Prism® software (GraphPad Software, Inc., La Jolla, Calif.). EC50 is the effective concentration of compound which causes 50% activation of S. aureus ClpP in the foregoing BODIPY FL casein assay.
Alternatively, the assay was carried out using EnzCheck Protease Assay (Molecular Probes, Catalog # E6638). The assay was performed in black 384 well, flat bottom, low volume plates (Greiner Bio-One, Monroe, N.C., catalog #784076). 10 μL of Tris.HCl buffer, pH 8.0 with 0.01% Triton X-100 was pipetted into each well using a Well-Mate (Thermo Scientific, Waltham, Mass.). 0.4 μL test compounds or controls (2% DMSO v/v) were added to each well using a Biomek FX liquid handling robot (Beckman Coulter, Indianapolis, Ind.). After addition of test compounds and controls, 10 μL of master mix containing 2 μM Sa-ClpP and 2 μM substrate (Bodipy-FL labeled casein) in Tris.HCl buffer, pH 8.0 with 0.01% (v/v) Triton X-100, was pipetted into each well. All assays were performed in triplicate, under linear velocity conditions. Increase in fluorescent signal following activation of Sa-ClpP by test compounds and controls was measured over time period of 30 mins using filters with excitation at 485±15 nm and emission at 520±25 nm on a PHERAstar FS Multilabel reader (BMG, Cary, N.C.). Instrument gains and enzyme linear velocity conditions were determined and validated using ADEP4, a known Sa-ClpP activator. Data analysis was done by measuring rate of casein degradation over time (slopes). Computed degradation rates (slopes) were normalized to positive (ADEP4) or negative (DMSO) controls. Using nonlinear regression curve fitting EC50 values and % activation were determined using the equation “log [agonist] vs. Response-variable slope (four parameters)-symmetrical” in the program Prism 6 (GraphPad Software, La Jolla, Calif. USA, www.graphpad.com).

Where [7] appears, read: read-out: Minimal Inhibitory Concentrations (μM) MRSA NRS70, MIC.
[8] abbreviates: read-out: Minimal Inhibitory Concentrations (μM) E. faecails, MIC.
[9] abbreviates: ATCC29213, read-out: Minimal Inhibitory Concentrations (μM) S. aureus ATCC 29213, MIC.
The mark [10] stands for this setting: USA300, read-out: Minimal Inhibitory Concentrations (μM) S. aureus USA 300, MIC.

In brackets after ≈: the same amount, converted by molar mass. Read-outs that look alike come from different tables or passages of the source. Numbered stars: 1 amine (or outer) side, 2 acyl side, 3 side chain; on linkers, the order of the positions; unused ones are H or OH. Bridge positions count the residues as written; N and C are the ends. Square brackets hold non-standard residues; d marks the D form. Peptide text beside a SMILES is read from it. * marks the point of attachment. Phe(3-Me) = Cc1cccc(C[C@H](N)C(=O)O)c1; Pro(4R-Me) = C[C@H]1CN[C@H](C(=O)O)C1; Hyp = O=C(O)[C@@H]1C[C@@H](O)CN1; NH(4-Me-phenyl) = Cc1ccc(N*)cc1; NH(4-F-phenyl) = Fc1ccc(N*)cc1; aThr = C[C@H](O)[C@H](N)C(=O)O; Pip = O=C(O)[C@@H]1CCCCN1; CO = O=C([*:1])[*:2]

Regarding `Cc1ccc(NC(=O)N[C@@H](Cc2cccc(C)c2)C(=O)N[C@@H]2C(=O)N3C[C@H](O)C[C@H]3C(=O)N3CCCC[C@H]3C(=O)N[C@@H](C)C(=O)N3CCC[C@H]3C(=O)O[C@H]2C)cc1` [Compound 51, (S)—N-((6S,8AS,14AS,16R,20S,21S,23AS)-16-HYDROXY-6,21-DIMETHYL-5,8,14,19,23-PENTAOXOOCTADECAHYDRO-1H,5H,14H,19H-PYRIDO[2,1-I]DIPYRROLO[2,1-C:2′,1′-L][1]OXA[4,7,10,13]TETRAAZACYCLOHEXADECIN-20-YL)-3-(M-TOLYL)-2-(3-(P-TOLYL)UREIDO)PROPANAMIDE] ({NH(4-Me-phenyl)-CO}-[Phe(3-Me)][aThr][Hyp][Pip]AP; ester 2-C), in assay [1], the “Minimal Inhibitory Concentrations (μM) S. aureus ΔClpP” value is >20 µM. For the same compound, the MIC was 2.5 µM (≈ 1.97 µg/mL) in assay [2] (setting [7]), 5 µM (≈ 3.94 µg/mL) in assay [3] (setting [8]), 5 µM (≈ 3.94 µg/mL) in assay [4] (setting [9]) and 5 µM (≈ 3.94 µg/mL) in assay [5] (setting [10]).

As for `Cc1cccc(C[C@H](NC(=O)Nc2ccc(F)cc2)C(=O)N[C@@H]2C(=O)N3C[C@H](O)C[C@H]3C(=O)N3CCCC[C@H]3C(=O)N[C@@H](C)C(=O)N3C[C@H](C)C[C@H]3C(=O)O[C@H]2C)c1` [Compound 79, (S)-2-(3-(4-FLUOROPHENYL)UREIDO)-N-((2R,6S,8AS,14AS,16R,20S,21S,23AS)-16-HYDROXY-2,6,21-TRIMETHYL-5,8,14,19,23-PENTAOXOOCTADECAHYDRO-1H,5H,14H,19H-PYRIDO[2,1-I]DIPYRROLO[2,1-C:2′,1′-L][1]OXA[4,7,10,13]TETRAAZACYCLOHEXADECIN-20-YL)-3-(M-TOLYL)PROPANAMIDE] ({NH(4-F-phenyl)-CO}-[Phe(3-Me)][aThr][Hyp][Pip]A[Pro(4R-Me)]; ester 2-C), the 50% effective concentration (EC50) – broadly, the concentration needed to bring the measured effect to its halfway point – in assay [6] is 900 ± 600 nM.

For `Cc1cccc(C[C@H](NC(=O)Nc2cccc(Cl)c2)C(=O)N[C@H]2COC(=O)[C@@H]3C[C@@H](C)CN3C(=O)[C@H](C)NC(=O)[C@@H]3CCCCN3C(=O)[C@@H]3CCCN3C2=O)c1` [Compound 72, (S)-2-(3-(3-CHLOROPHENYL)UREIDO)-N-((2R,6S,8AS,14AS,20S,23AS)-2,6-DIMETHYL-5,8,14,19,23-PENTAOXOOCTADECAHYDRO-1H,5H,14H,19H-PYRIDO[2,1-I]DIPYRROLO[2,1-C:2′,1′-L][1]OXA[4,7,10,13]TETRAAZACYCLOHEXADECIN-20-YL)-3-(M-TOLYL)PROPANAMIDE], the “Minimal Inhibitory Concentrations (μM) S. aureus ΔClpP” value in assay [1] is >20 µM. The MIC in assay [2] (setting [7]) was determined as 2.5 µM (≈ 1.98 µg/mL); in assay [3] (setting [8]) it was 10 µM (≈ 7.92 µg/mL); in assay [4] (setting [9]) it was 2.5 µM (≈ 1.98 µg/mL); in assay [5] (setting [10]), 2.5 µM (≈ 1.98 µg/mL).

On to `Cc1cccc(C[C@H](NC(=O)Nc2ccc(Cl)cc2F)C(=O)N[C@H]2COC(=O)[C@@H]3CCCN3C(=O)[C@H](C)NC(=O)[C@@H]3CCCCN3C(=O)[C@@H]3C[C@@H](O)CN3C2=O)c1` [Compound 48, (S)-2-(3-(4-CHLORO-2-FLUOROPHENYL)UREIDO)-N-((6S,8AS,14AS,16R,20S,23AS)-16-HYDROXY-6-METHYL-5,8,14,19,23-PENTAOXOOCTADECAHYDRO-1H,5H,14H,19H-PYRIDO[2,1-I]DIPYRROLO[2,1-C:2′,1′-L][1]OXA[4,7,10,13]TETRAAZACYCLOHEXADECIN-20-YL)-3-(M-TOLYL)PROPANAMIDE], for which the MIC in assay [2] (MIC, read-out: Minimal Inhibitory Concentrations (μM) MRSA NRS70) worked out at 1.25 µM (≈ 1.02 µg/mL); in assay [3] (MIC, read-out: Minimal Inhibitory Concentrations (μM) E. faecails) it was 2.5 µM (≈ 2.03 µg/mL); in assay [4] (ATCC29213, MIC, read-out: Minimal Inhibitory Concentrations (μM) S. aureus ATCC 29213) it was 1.25 µM (≈ 1.02 µg/mL); in assay [5] (USA300, MIC, read-out: Minimal Inhibitory Concentrations (μM) S. aureus USA 300) it was 1.25 µM (≈ 1.02 µg/mL).
